The results in this text go back to ChEMBL document CHEMBL4725227, “Dual-Target Inhibitors Based on HDACs: Novel Antitumor Agents for Cancer Therapy” (J Med Chem, 2020).

pIC50: −log10 of the molar value.

In one assay the test system is A549. Kind of assay: Cytotoxicity against human A549 cells assessed as reduction in cell viability by MTT assay. A general note: Tetrazolium assays rely on reduction of a dye to a coloured formazan, in cell work by metabolically active cells.
Another assay deals with A-431. Nature of the assay: Cytotoxicity against human A-431 cells assessed as reduction in cell viability by MTT assay. The format is functional, cell-based.
The test system of assay [1] is MCF7. Nature of the assay: Cytotoxicity against human MCF7 cells assessed as reduction in cell viability in presence of SAHA by MTT assay. The format is functional, cell-based.
The next assay has as its target Histone deacetylase. Nature of the assay: Inhibition of HDAC (unknown origin). It is filed as protein assay, Homo sapiens.
The subject of the next assay is HeLa. Kind of assay: Cytotoxicity against human HeLa cells assessed as reduction in cell viability by MTT assay. The format is functional, cell-based.
Assay [2] concerns the target Epidermal growth factor receptor (Homo sapiens, UniProt P00533). Kind of assay: Inhibition of EGFR (unknown origin).
Another assay concerns MDA-MB-468. Nature of the assay: Cytotoxicity against human MDA-MB-468 cells assessed as reduction in cell viability by MTT assay. The format is functional, cell-based.
The next assay deals with KG-1. Nature of the assay: Cytotoxicity against human KG-1 cells assessed as reduction in cell viability by MTT assay. The format is functional, cell-based.
The test system of another assay is HT-29. Kind of assay: Cytotoxicity against human HT-29 cells assessed as reduction in cell viability by MTT assay. It is filed as functional, cell-based.
The next assay concerns MDA-MB-231. Kind of assay: Cytotoxicity against human MDA-MB-231 cells assessed as reduction in cell viability by MTT assay. The format is functional, cell-based.
Another assay has as its system DU-145. Nature of the assay: Cytotoxicity against human DU-145 cells assessed as reduction in cell viability. It is filed as functional, cell-based.
Assay [3] deals with MCF7. Nature of the assay: Cytotoxicity against human MCF7 cells assessed as reduction in cell viability. The format is functional, cell-based.
For the next assay, the target named is Histone deacetylase 1 (Homo sapiens, UniProt Q13547). Kind of assay: Inhibition of HDAC1 (unknown origin).
Histone deacetylase 1, sequence (Q13547 whole entry): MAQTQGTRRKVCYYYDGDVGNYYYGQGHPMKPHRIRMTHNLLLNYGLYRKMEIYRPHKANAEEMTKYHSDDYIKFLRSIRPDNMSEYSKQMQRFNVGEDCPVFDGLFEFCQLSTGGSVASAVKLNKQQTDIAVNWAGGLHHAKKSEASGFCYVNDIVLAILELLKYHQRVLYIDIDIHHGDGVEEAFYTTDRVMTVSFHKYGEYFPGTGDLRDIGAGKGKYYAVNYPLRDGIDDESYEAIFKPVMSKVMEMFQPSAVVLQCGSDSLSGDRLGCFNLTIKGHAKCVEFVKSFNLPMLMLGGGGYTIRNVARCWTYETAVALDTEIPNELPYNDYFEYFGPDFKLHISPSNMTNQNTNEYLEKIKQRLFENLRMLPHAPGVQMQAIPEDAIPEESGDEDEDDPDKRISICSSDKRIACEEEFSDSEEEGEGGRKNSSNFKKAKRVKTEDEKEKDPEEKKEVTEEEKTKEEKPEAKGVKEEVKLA
Assay [4] concerns the target Vascular endothelial growth factor receptor 2 (Homo sapiens, UniProt P35968). Nature of the assay: Inhibition of VGFR2 (unknown origin).
Assay [5] relates to MCF7. Nature of the assay: Cytotoxicity against human MCF7 cells assessed as reduction in cell viability by MTT assay. The format is functional, cell-based.

Epidermal growth factor receptor, sequence (P00533 whole entry): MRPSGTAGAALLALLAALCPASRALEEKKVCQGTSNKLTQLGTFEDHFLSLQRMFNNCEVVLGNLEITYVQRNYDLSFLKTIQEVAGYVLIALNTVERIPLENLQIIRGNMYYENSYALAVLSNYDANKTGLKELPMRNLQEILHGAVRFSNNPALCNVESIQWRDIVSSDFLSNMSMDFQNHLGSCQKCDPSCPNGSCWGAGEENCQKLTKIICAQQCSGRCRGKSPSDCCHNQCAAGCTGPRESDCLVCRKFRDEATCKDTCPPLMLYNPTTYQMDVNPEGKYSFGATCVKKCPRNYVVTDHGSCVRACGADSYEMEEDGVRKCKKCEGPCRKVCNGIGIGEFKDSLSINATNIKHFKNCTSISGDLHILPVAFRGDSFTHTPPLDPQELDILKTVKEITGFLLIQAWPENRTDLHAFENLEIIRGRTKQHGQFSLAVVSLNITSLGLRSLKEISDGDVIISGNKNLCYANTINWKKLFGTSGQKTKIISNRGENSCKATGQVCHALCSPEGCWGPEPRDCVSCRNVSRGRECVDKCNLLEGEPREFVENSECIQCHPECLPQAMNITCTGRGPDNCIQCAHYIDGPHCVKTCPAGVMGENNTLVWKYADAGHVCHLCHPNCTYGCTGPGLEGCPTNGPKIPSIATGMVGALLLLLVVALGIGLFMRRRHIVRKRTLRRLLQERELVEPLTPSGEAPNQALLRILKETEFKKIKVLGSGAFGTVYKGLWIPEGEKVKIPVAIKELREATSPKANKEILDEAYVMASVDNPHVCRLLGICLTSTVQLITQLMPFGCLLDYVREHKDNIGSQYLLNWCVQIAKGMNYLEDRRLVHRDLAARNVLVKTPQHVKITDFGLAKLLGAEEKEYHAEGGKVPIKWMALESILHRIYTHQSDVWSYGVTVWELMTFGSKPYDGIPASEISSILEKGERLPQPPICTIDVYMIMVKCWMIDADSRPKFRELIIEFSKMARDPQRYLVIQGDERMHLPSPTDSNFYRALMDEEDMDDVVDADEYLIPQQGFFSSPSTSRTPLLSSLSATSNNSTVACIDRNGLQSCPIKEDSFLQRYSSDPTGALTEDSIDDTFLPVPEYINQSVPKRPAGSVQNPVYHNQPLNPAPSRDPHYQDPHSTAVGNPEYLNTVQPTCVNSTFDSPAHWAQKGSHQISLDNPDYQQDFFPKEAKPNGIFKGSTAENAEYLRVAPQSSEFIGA
Vascular endothelial growth factor receptor 2, sequence (P35968 whole entry): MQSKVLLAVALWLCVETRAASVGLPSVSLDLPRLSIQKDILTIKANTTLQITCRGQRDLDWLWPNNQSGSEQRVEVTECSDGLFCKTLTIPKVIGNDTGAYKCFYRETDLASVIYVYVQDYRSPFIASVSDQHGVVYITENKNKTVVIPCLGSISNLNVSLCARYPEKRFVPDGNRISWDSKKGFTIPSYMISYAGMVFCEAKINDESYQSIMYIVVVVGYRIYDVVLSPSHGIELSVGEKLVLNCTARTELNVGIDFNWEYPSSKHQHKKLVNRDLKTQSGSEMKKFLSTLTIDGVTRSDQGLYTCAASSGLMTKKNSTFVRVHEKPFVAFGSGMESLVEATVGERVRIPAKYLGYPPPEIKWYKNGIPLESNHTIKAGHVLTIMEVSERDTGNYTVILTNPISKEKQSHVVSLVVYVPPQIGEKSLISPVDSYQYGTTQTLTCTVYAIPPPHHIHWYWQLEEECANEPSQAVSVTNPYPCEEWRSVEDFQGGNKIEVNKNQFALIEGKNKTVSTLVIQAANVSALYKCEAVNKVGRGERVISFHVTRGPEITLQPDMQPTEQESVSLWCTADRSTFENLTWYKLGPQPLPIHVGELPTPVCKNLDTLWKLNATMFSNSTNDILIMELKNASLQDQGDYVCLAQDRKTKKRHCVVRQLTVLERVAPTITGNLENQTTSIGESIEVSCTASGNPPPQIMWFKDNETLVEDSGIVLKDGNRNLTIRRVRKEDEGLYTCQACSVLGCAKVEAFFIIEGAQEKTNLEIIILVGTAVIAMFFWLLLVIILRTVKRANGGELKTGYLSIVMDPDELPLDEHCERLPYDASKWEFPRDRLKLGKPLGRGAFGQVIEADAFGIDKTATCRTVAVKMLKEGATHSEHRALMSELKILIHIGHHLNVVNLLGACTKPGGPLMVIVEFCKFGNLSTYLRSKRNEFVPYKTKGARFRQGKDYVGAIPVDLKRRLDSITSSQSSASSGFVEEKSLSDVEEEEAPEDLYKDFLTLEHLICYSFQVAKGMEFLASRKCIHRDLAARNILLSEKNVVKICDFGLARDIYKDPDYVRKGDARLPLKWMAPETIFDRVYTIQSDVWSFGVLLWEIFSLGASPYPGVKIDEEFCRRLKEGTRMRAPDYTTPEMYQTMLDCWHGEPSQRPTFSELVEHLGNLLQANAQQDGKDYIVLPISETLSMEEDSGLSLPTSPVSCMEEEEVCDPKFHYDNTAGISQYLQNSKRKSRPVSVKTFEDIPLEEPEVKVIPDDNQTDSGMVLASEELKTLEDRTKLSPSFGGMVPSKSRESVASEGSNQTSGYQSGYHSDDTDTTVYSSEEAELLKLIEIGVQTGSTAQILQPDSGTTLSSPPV

In general, pIC50 refers to the negative decadic logarithm of the IC50, by convention in mol/L. For `C#Cc1cccc(Nc2ncnc3cc(OCCOC)c(OCCOC)cc23)c1` [ERLOTINIB], the pIC50 was 4.93 in the assay on A549, 5.85 in the assay on A-431 and 5.57 with MCF7 [1].
As a reminder, the IC50 is the concentration at which inhibition is half-maximal. A lower IC50 goes with inhibition by little substance. On to `Cn1cc(-c2ccnc(Nc3ccc(C(=O)NCCCCCCC(=O)NO)cc3)n2)c2ccccc21`, for which, on Histone deacetylase, the IC50 entry is reported as “<= 1 uM”. Besides, the pIC50 is 5.73 in the assay with HeLa; 5.24 in assay [2]; 6.64 in the assay with MDA-MB-468; 6.62 with KG-1; 6.10 in the assay with HT-29; 6.22 in the assay on MDA-MB-231.
Consider `Cc1ccccc1OS(=O)(=O)C1CC2OC1C(c1ccc(NC(=O)CCCCCCC(=O)NO)cc1)=C2c1ccc(O)cc1` (stereo unspecified), for which the pIC50 is below 4.00 with DU-145, 5.10 with MCF7 [3] and 7.66 against Histone deacetylase 1.
As to `COc1cc2ncnc(Nc3ccc(Br)cc3)c2cc1OCCCCCC(=O)NO`, the pIC50 in assay [4] is 7.13; in the assay on MCF7 [5], 6.07. The IC50 against Histone deacetylase came out at 2.2 nM.
